Patent publication US9527828B2, “Method for expanding hematopoietic stem cells using heterocyclic compound” (Nissan Chemical Industries, Ltd., priority 2007, dated 2016)

Tested on: CD34^+CD38^− cells
Test: Expansion of CD34+CD38− cells from human cord blood-derived CD34+ cells (Example 2)
Format: cell-based
Details: Homo sapiens, 168 h, 1 μg/mL compound, 50 ng/mL SCF, StemSpan SFEM, 7 days; based on number of CD34+CD38− cells in the absence of compound; read-out: Expansion efficiency
Procedure: The human cord blood-derived CD34^+ cells collected or purchased in Example 1 were plated on a 24-well plate (TPP) (10000 cells/1/mL/well). As the culture medium, StemSpan SFEM (Stemcell Technologies) containing 50 ng/mL SCF (Peprotech) was used, and Compounds No. 1 to 133 dissolved in dimethyl sulfoxide were added in an amount of 0.1% (v/v) to a final concentration of 1 μg/mL.
After the cells were incubated in liquid culture at 37° C. for 7 days in a CO2 incubator (5% CO2), the number of viable cells was counted by trypan blue assay. The number of CD34^+CD38^− cells was calculated as follows. After the incubation, the cells in the liquid culture was stained with a CD34 antibody (APC, Becton, Dickinson and Company) and a CD38 antibody (PE, Becton, Dickinson and Company), then washed with PBS(−) containing 2% (v/v) FBS and stained with propidium iodide (Sigma-Aldrich Japan) added to a final concentration of 5 μg/mL. The stained cells were analyzed with a flow cytometer JSAN (Bay Bioscience) to determined the proportion of CD34^+CD38^− cells, which was multiplied by the number of viable cells to calculate the number of CD34^+CD38^− cells.
The expansion efficiencies in the presence of 1 μg/mL of compounds based on the number of CD34^+CD38^− cells in the absence of them are shown in Tables 2 and 3 on a scale of A for expansion efficiencies of 10 or greater, B for expansion efficiencies of at least 5 and less than 10, and C for expansion efficiencies of at least 3 and less than 5.

| Structure (SMILES) | fold induction at 1 µg/mL |
| --- | --- |
| C/C(=N\NC(=O)c1ccc(C(=O)NCc2cc[n+]([O-])cc2)s1)c1csc(-c2ccc(Cl)c(Cl)c2)c1O [compound 3] | ≥ 10 |
| C/C(=N\NC(=O)c1ccc(C(=O)NCc2ccncc2)s1)c1csc(-c2ccc(Cl)c(Cl)c2)c1O [compound 5] | ≥ 10 |
| COc1cc(CNC(=O)c2ccc(C(=O)N/N=C(\C)c3csc(-c4ccc(Cl)c(Cl)c4)c3O)s2)on1 [compound 7] | ≥ 10 |
| C/C(=N\NC(=O)c1ccc(C(=O)NCc2cnccn2)s1)c1csc(-c2ccc(Cl)c(Cl)c2)c1O [compound 8] | ≥ 10 |
| C/C(=N\NC(=O)c1ccc(C(=O)NCCO)s1)c1csc(-c2ccc(Cl)cc2)c1O [compound 10] | ≥ 10 |
| CNC(=O)c1ccc(C(=O)N/N=C(\C)c2csc(-c3ccc(Cl)cc3)c2O)s1 [compound 11] | ≥ 10 |
| C/C(=N\NC(=O)c1ccc(C(=O)NCc2cccs2)s1)c1csc(-c2ccc(Cl)cc2)c1 [compound 12] | ≥ 10 |
| C/C(=N\NC(=O)c1ccc(C(=O)NCc2cc(C)on2)s1)c1csc(-c2ccc(OC(F)(F)F)cc2)c1O [compound 13] | ≥ 10 |
| C/C(=N\NC(=O)c1ccc(C(=O)NCc2cnc(C)cn2)s1)c1csc(-c2ccc(OC(F)(F)F)cc2)c1O [compound 14] | ≥ 10 |
| COc1cc(CNC(=O)c2ccc(C(=O)N/N=C(\C)c3csc(-c4ccc(OC(F)(F)F)cc4)c3O)s2)on1 [compound 15] | ≥ 10 |
| C/C(=N\NC(=O)c1ccc(C(=O)NCc2ccccc2)s1)c1csc(-c2ccc(Cl)c(Cl)c2)c1O [compound 16] | ≥ 10 |
| COc1cc(CNC(=O)c2ccc(C(=O)N/N=C(\C)c3csc(-c4ccc(Cl)cc4)c3O)s2)on1 [compound 17] | ≥ 10 |
| C/C(=N\NC(=O)c1ccc(C(=O)NCc2cc[n+]([O-])cc2)s1)c1csc(-c2ccc(Cl)cc2)c1O [compound 18] | ≥ 10 |
| C/C(=N\NC(=O)c1ccc(C(=O)NCc2cc(C)n(C)n2)s1)c1csc(-c2ccc(Cl)cc2)c1O [compound 19] | ≥ 10 |
| C/C(=N\NC(=O)c1ccc(C(=O)NC2CC2)s1)c1csc(-c2ccc(Cl)c(Cl)c2)c1 [compound 21] | ≥ 10 |
| COCCNC(=O)c1ccc(C(=O)N/N=C(\C)c2csc(-c3ccc(Cl)c(Cl)c3)c2O)s1 [compound 22] | 5 to 10 |
| C/C(=N\NC(=O)c1ccc(C(=O)NCCN2CCOCC2)s1)c1csc(-c2ccc(Cl)c(Cl)c2)c1O [compound 23] | 5 to 10 |
| CCNC(=O)c1ccc(C(=O)N/N=C(\C)c2csc(-c3ccc(Cl)c(Cl)c3)c2O)s1 [compound 24] | 5 to 10 |
| C/C(=N\NC(=O)c1ccc(C(=O)NCc2cccs2)s1)c1csc(-c2ccc(Cl)c(Cl)c2)c1O [compound 25] | 5 to 10 |
| C/C(=N\NC(=O)c1ccc(C(=O)N(C)Cc2ccccc2)s1)c1csc(-c2ccc(Cl)c(Cl)c2)c1O [compound 26] | ≥ 10 |

| Structure (SMILES) | fold induction at 1 µg/mL |
| --- | --- |
| CCCCCN(C)C(=O)c1ccc(C(=O)N/N=C(\C)c2csc(-c3ccc(Cl)c(Cl)c3)c2O)s1 [compound 27] | 5 to 10 |
| C/C(=N\NC(=O)c1ccc(C(=O)N(C(C)C)C(C)C)s1)c1csc(-c2ccc(Cl)c(Cl)c2)c1O [compound 28] | ≥ 10 |
| C/C(=N\NC(=O)c1ccc(C(=O)NCCN2CCOCC2)s1)c1csc(-c2ccc(OC(F)(F)F)cc2)c1O [compound 29] | ≥ 10 |
| C/C(=N\NC(=O)c1ccc(C(=O)NCc2cccs2)s1)c1csc(-c2cccc(Cl)c2)c1O [compound 30] | 5 to 10 |
| CCCNC(=O)c1ccc(C(=O)N/N=C(\C)c2csc(-c3ccc(Cl)cc3)c2O)s1 [compound 31] | ≥ 10 |
| C/C(=N\NC(=O)c1ccc(C(=O)NCc2ccccn2)s1)c1csc(-c2ccc(Cl)cc2)c1O [compound 32] | 5 to 10 |
| C/C(=N\NC(=O)c1ccc(C(=O)NCCCN2CCOCC2)s1)c1csc(-c2ccc(Br)cc2)c1O [compound 33] | 5 to 10 |
| C/C(=N\NC(=O)c1ccc(C(=O)NCCN2CCOCC2)s1)c1csc(-c2ccc(Br)cc2)c1O [compound 34] | 3 to 5 |
| C/C(=N\NC(=O)c1ccc(C(=O)NCc2cscn2)s1)c1csc(-c2ccc(Cl)c(Cl)c2)c1O [compound 35] | 5 to 10 |
| C/C(=N\NC(=O)c1ccc(C(=O)NCc2ncccn2)s1)c1csc(-c2ccc(Cl)c(Cl)c2)c1O [compound 36] | ≥ 10 |
| C/C(=N\NC(=O)c1ccc(C(=O)NCc2cc(C)on2)s1)c1csc(-c2ccc(Cl)c(Cl)c2)c1O [compound 38] | ≥ 10 |
| C/C(=N\NC(=O)c1ccc(C(=O)NCc2cnc(C)cn2)s1)c1csc(-c2ccc(Cl)c(Cl)c2)c1O [compound 39] | 5 to 10 |
| C/C(=N\NC(=O)c1ccc(C(=O)NCc2ccno2)s1)c1csc(-c2ccc(Cl)c(Cl)c2)c1O [compound 40] | 5 to 10 |
| C/C(=N\NC(=O)c1ccc(C(=O)NCc2c(C)nn(C)c2C)s1)c1csc(-c2ccc(Cl)c(Cl)c2)c1O [compound 41] | 5 to 10 |
| COc1c(/C(C)=N/NC(=O)c2ccc(C(=O)NCc3ccncc3)s2)csc1-c1ccc(Cl)c(Cl)c1 [compound 42] | 5 to 10 |
| C/C(=N\NC(=O)c1ccc(C(=O)NCc2ccnnc2)s1)c1csc(-c2ccc(Cl)c(Cl)c2)c1O [compound 43] | ≥ 10 |
| C/C(=N\NC(=O)c1ccc(C(=O)NCc2cccnn2)s1)c1csc(-c2ccc(Cl)c(Cl)c2)c1O [compound 44] | 5 to 10 |
| C/C(=N\NC(=O)c1ccc(C(=O)NCc2ccnn2C)s1)c1csc(-c2ccc(C(F)(F)F)cc2)c1O [compound 45] | 5 to 10 |
| C/C(=N\NC(=O)c1ccc(C(=O)NCc2cc(C)on2)s1)c1csc(-c2ccc(C(F)(F)F)cc2)c1O [compound 46] | 5 to 10 |
| C/C(=N\NC(=O)c1ccc(C(=O)NCc2cc(Cl)no2)s1)c1csc(-c2ccc(Cl)c(Cl)c2)c1O [compound 47] | 5 to 10 |

| Structure (SMILES) | fold induction at 1 µg/mL |
| --- | --- |
| C/C(=N\NC(=O)c1ccc(C(=O)NCc2ccno2)s1)c1csc(-c2ccc(C(F)(F)F)cc2)c1O [compound 48] | 5 to 10 |
| C/C(=N\NC(=O)c1ccc(C(=O)NCc2c(C)nn(C)c2C)s1)c1csc(-c2ccc(C(F)(F)F)cc2)c1O [compound 49] | 5 to 10 |
| COc1cc(CNC(=O)c2ccc(C(=O)N/N=C(\C)c3csc(-c4ccc(C(F)(F)F)cc4)c3O)s2)on1 [compound 50] | 5 to 10 |
| C/C(=N\NC(=O)c1ccc(C(=O)NCc2cncn2C)s1)c1csc(-c2ccc(Cl)c(Cl)c2)c1O [compound 51] | 5 to 10 |
| C/C(=N\NC(=O)c1ccc(C(=O)NCc2cncn2C)s1)c1csc(-c2ccc(C(F)(F)F)cc2)c1O [compound 52] | 5 to 10 |
| C/C(=N\NC(=O)c1ccc(C(=O)NCc2cnn(C)n2)s1)c1csc(-c2ccc(Cl)c(Cl)c2)c1O [compound 53] | 5 to 10 |
| C/C(=N\NC(=O)c1ccc(C(=O)NCc2cnn(C)n2)s1)c1csc(-c2ccc(C(F)(F)F)cc2)c1O [compound 54] | 5 to 10 |
| C/C(=N\NC(=O)c1ccc(C(=O)NCc2cn(C)cn2)s1)c1csc(-c2ccc(C(F)(F)F)cc2)c1O [compound 55] | 5 to 10 |
| C/C(=N\NC(=O)c1ccc(C(=O)NCc2cc(C)n(C)n2)s1)c1csc(-c2ccc(C(F)(F)F)cc2)c1O [compound 56] | 5 to 10 |
| C/C(=N\NC(=O)c1ccc(C(=O)NCc2cc[n+]([O-])cc2)s1)c1csc(-c2ccc(C(F)(F)F)cc2)c1O [compound 57] | 5 to 10 |
| C/C(=N\NC(=O)c1ccc(C(=O)NCc2ccnn2C)s1)c1csc(-c2ccc(Cl)cc2)c1O [compound 58] | 5 to 10 |
| C/C(=N\NC(=O)c1ccc(C(=O)NCc2ccc(S(C)(=O)=O)cc2)s1)c1csc(-c2ccc(Cl)c(Cl)c2)c1O [compound 59] | 5 to 10 |
| C/C(=N\NC(=O)c1ccc(C(=O)NCc2ccc(C#N)cc2)s1)c1csc(-c2ccc(Cl)c(Cl)c2)c1O [compound 60] | ≥ 10 |
| C/C(=N\NC(=O)c1ccc(C(=O)NCc2ccc(S(N)(=O)=O)cc2)s1)c1csc(-c2ccc(Cl)c(Cl)c2)c1O [compound 61] | 5 to 10 |
| CCCNC(=O)c1ccc(C(=O)N/N=C(\C)c2csc(-c3ccc(Cl)c(Cl)c3)c2O)s1 [compound 62] | 3 to 5 |
| C/C(=N\NC(=O)c1ccc(C(=O)NC2CCCC2)s1)c1csc(-c2ccc(Cl)c(Cl)c2)c1O [compound 63] | 3 to 5 |
| C/C(=N\NC(=O)c1ccc(C(=O)NCCCN(C)C)s1)c1csc(-c2ccc(Cl)c(Cl)c2)c1O [compound 64] | 3 to 5 |
| C/C(=N\NC(=O)c1ccc(C(=O)NCCO)s1)c1csc(-c2ccc(Cl)c(Cl)c2)c1O [compound 65] | 5 to 10 |
| C/C(=N\NC(=O)c1ccc(C(=O)NCCN(C)C)s1)c1csc(-c2ccc(Cl)c(Cl)c2)c1O [compound 66] | 3 to 5 |
